Source: patent US5958940A, “Tricyclic compounds useful as inhibitors of farnesyl-protein transferase” (Schering Corporation, priority 1997, dated 1999)

Molecular target: T1, farnesyl protein transferase (Rattus norvegicus, UniProt Q02293+Q04631)
T1 construct: partially purified rat brain farnesyl protein transferase (FPT); from tissue; host or cells: rat brain, partially purified
Experiment: FPT inhibition, in vitro enzyme assay (Ras-CVLS farnesylation by partially purified rat brain FPT)
Assay type: biochemical

Row | inhibition at 0.3 µM (@0.3 μM) | inhibition at 0.1 µM (@0.1 μM) | Structure (SMILES)
1 | 15% |  | O=C(NCc1cccnc1)[C@@H]1CCCN1C1c2ncc(Br)cc2CCc2cc(Cl)cc(Br)c21 (single isomer, unassigned) [Example 2 Isomer A, 1-(3,10-dibromo-8-chloro-6,11-dihydro-5H-benzo[5,6]cyclohepta[1,2-b]pyridine-11-yl)-N-(3-pyridinylmethyl)-2-pyrrolidine carboxamide]
2 |  | 17% | O=C(NCc1cccnc1)[C@@H]1CCN1C1c2ccc(Cl)cc2CCc2cc(Br)cnc21 (single isomer, unassigned) [Example 3 Isomer B, 1-(3-bromo-8-chloro-6,11-dihydro-5H-benzo[5,6]cyclohepta[1,2-b]pyridine-11-yl)-N-(3-pyridinylmethyl)2-azetidine carboxamide]
